In article PMC9822434, “Estradiol-Based Salicylaldehyde (Thio)Semicarbazones and Their Copper Complexes with Anticancer, Antibacterial and Antioxidant Activities” (Molecules, 2022):

Columns and labels:
Assay in all cases: MTT cytotoxicity assay
Type in all cases: cell-based, human
MCF-7 = conditions: Homo sapiens, MCF7; MCF-7, MTT, 24 h incubation time
Method in brief: (§1)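 Cells were exposed 24 h to 0–20 µM (2.5, 5, 10, 15, 20 µM) Cu(II) complexes, ligands or metal salts (equimolar ligand–CuCl2), then 0.5 mg/mL MTT for 1 h at 37 °C. Formazan was dissolved in DMSO and read at 570 nm; viability is relative to untreated control as 100%.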

A549 = conditions: Homo sapiens, 24 h incubation time
Method in brief: as §1

DU-145 = conditions: Homo sapiens; DU-145, MTT, 24 h incubation time
Method in brief: as §1

MCF-7 KCR = conditions: Homo sapiens, MCF7, 24 h incubation time
Method in brief: as §1

With `C[C@]12CC[C@@H]3c4cc(C=NNC(N)=S)c(O)cc4CC[C@H]3[C@@H]1CCC2O` (stereo partly shown) [estradiol-TSC, 2-((3,17 Dihydroxy-estra-1,3,5(10)-triene-2-yl)methylene)Hydrazine-1-carbothioamide] the IC50 (MCF-7) was > 20 µM, the IC50 (A549) was 20.5 ± 1.07 µM and the IC50 (DU-145) was > 20 µM. For the same compound, the IC50 (MCF-7 KCR) was > 20 µM.
